Target: T1, TLR7 (Homo sapiens, UniProt Q9NYK1)
T1 sequence (Q9NYK1 27-1049): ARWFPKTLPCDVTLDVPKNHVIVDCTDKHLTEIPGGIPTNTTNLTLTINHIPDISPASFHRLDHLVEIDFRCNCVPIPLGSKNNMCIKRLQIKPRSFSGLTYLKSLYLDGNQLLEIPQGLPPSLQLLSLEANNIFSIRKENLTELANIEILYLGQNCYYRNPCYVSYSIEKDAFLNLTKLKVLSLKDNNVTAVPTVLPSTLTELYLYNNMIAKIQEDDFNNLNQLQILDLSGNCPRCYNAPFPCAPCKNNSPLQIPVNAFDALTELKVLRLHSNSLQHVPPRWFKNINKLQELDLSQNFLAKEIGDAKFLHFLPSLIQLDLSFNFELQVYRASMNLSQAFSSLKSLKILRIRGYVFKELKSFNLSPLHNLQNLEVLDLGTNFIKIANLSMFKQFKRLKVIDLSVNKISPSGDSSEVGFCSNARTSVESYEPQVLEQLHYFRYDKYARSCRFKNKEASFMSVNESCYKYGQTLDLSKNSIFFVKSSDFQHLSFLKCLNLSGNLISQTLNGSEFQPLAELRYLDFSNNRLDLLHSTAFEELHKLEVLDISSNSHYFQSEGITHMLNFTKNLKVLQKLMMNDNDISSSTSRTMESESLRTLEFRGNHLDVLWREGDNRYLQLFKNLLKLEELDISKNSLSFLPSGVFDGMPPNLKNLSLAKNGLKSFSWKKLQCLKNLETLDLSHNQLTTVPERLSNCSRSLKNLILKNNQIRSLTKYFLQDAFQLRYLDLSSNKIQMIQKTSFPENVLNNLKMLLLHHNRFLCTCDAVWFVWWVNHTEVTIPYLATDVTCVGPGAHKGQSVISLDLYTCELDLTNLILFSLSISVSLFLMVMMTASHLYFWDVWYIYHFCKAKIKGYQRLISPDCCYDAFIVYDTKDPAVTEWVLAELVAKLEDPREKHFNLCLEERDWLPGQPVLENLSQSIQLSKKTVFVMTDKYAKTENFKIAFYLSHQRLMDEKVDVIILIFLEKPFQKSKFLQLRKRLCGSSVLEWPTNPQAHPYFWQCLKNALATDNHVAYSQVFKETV
Assay: Dose-response relationship between antagonist and R848, human TLR7 reporter gene assay
Format: cell-based
Parameters: host or cells: HEK293 (TLR7/NF-κB/SEAPorter)
Method: Compounds were dissolved in dimethyl sulfoxide. Human TLR7 reporter cell line (Novus Biological) were seeded in 96-well microtiter plate (AGC techno glass) at 5 × 10^4 cells/well in DMEM (GIBCO) with 10% fetal bovine serum (GIBCO), and 10 μg ml^−1 Blastcidin S HCl (GIBCO) and incubated at 37 °C in 5% CO2. The plates were incubated over-night and then addition with various concentrations of compound. After 30 min, R848 (human TLR7/8 ligand) that was diluted with the medium was added, wherein final concentration was adjusted to 0.01, 0.03, 0.1, 0.3, 1, 3, 10, 30, 100, 300 and 1000 μM. The plates were then incubated an additional 20 ± 1 h at 37 °C in 5% CO2, and then the SEAP activity was measured as activation of human TLR7. The SEAP activity was evaluated as follows: pNPP (Invitrogen) was added to the incubated sample (50 μl/well); after 15 min, 4 mol l^−1 sodium hydroxide solution (nacalai tesque) was added thereto (50 μl/well) to quench the reaction; and the absorbance of each sample was measured at 405 nm with microplate reader SpectraMax M4 (Molecular Devices).

CCOc1nc(C)c2nc(-c3cncc(F)c3)n(Cc3ccc(CN4C[C@@H]5C[C@H]4CN5C)cc3)c2n1 [Cpd-7]
mode of action against R848: acted as antagonists
TLR7 reporter signal (Cpd-7 0.001 µM, log10[R848 (µM)] 0): 15.1994
TLR7 reporter signal (Cpd-7 0.001 µM, log10[R848 (µM)] 0.477121): 53.0748
TLR7 reporter signal (Cpd-7 0.001 µM, log10[R848 (µM)] 1): 91.3639
TLR7 reporter signal (Cpd-7 0.001 µM, log10[R848 (µM)] 1.47712): 103.082
TLR7 reporter signal (Cpd-7 0.001 µM, log10[R848 (µM)] 2): 104.508
TLR7 reporter signal (Cpd-7 0.001 µM, log10[R848 (µM)] 2.47712): 104.681
TLR7 reporter signal (Cpd-7 0.001 µM, log10[R848 (µM)] 3): 101.38
TLR7 reporter signal (Cpd-7 0.001 µM, log10[R848 (µM)] -0.522879): 2.983
TLR7 reporter signal (Cpd-7 0.001 µM, log10[R848 (µM)] -1): 1.3957
TLR7 reporter signal (Cpd-7 0.001 µM, log10[R848 (µM)] -1.52288): 1.22
TLR7 reporter signal (Cpd-7 0.001 µM, log10[R848 (µM)] -2): 0.09581
TLR7 reporter signal (Cpd-7 0.003 µM, log10[R848 (µM)] 0): 11.9465
TLR7 reporter signal (Cpd-7 0.003 µM, log10[R848 (µM)] 0.477121): 48.0206
TLR7 reporter signal (Cpd-7 0.003 µM, log10[R848 (µM)] 1): 90.4952
TLR7 reporter signal (Cpd-7 0.003 µM, log10[R848 (µM)] 1.47712): 102.689
TLR7 reporter signal (Cpd-7 0.003 µM, log10[R848 (µM)] 2): 104.173
TLR7 reporter signal (Cpd-7 0.003 µM, log10[R848 (µM)] 2.47712): 102.967
TLR7 reporter signal (Cpd-7 0.003 µM, log10[R848 (µM)] 3): 101.934
TLR7 reporter signal (Cpd-7 0.003 µM, log10[R848 (µM)] -0.522879): 2.073
TLR7 reporter signal (Cpd-7 0.003 µM, log10[R848 (µM)] -1): 1.332
TLR7 reporter signal (Cpd-7 0.003 µM, log10[R848 (µM)] -1.52288): 1.335
TLR7 reporter signal (Cpd-7 0.003 µM, log10[R848 (µM)] -2): -0.4152
TLR7 reporter signal (Cpd-7 0.01 µM, log10[R848 (µM)] 3): 101.214
TLR7 reporter signal (Cpd-7 0.1 µM, log10[R848 (µM)] 0): 3.483
TLR7 reporter signal (Cpd-7 0.1 µM, log10[R848 (µM)] 0.477121): 8.9858
TLR7 reporter signal (Cpd-7 0.1 µM, log10[R848 (µM)] 1): 46.2209
TLR7 reporter signal (Cpd-7 0.1 µM, log10[R848 (µM)] 1.47712): 89.5722
TLR7 reporter signal (Cpd-7 0.1 µM, log10[R848 (µM)] 2): 103.066
TLR7 reporter signal (Cpd-7 0.1 µM, log10[R848 (µM)] 2.47712): 105.195
TLR7 reporter signal (Cpd-7 0.1 µM, log10[R848 (µM)] 3): 99.2702
TLR7 reporter signal (Cpd-7 0.1 µM, log10[R848 (µM)] -0.522879): 1.691
TLR7 reporter signal (Cpd-7 0.1 µM, log10[R848 (µM)] -1): 1.377
TLR7 reporter signal (Cpd-7 0.1 µM, log10[R848 (µM)] -1.52288): 1.495
TLR7 reporter signal (Cpd-7 0.1 µM, log10[R848 (µM)] -2): -0.1134
TLR7 reporter signal (Cpd-7 0.3 µM, log10[R848 (µM)] 0): 1.803
TLR7 reporter signal (Cpd-7 0.3 µM, log10[R848 (µM)] 0.477121): 3.628
TLR7 reporter signal (Cpd-7 0.3 µM, log10[R848 (µM)] 1): 15.5922
TLR7 reporter signal (Cpd-7 0.3 µM, log10[R848 (µM)] 1.47712): 56.9825
TLR7 reporter signal (Cpd-7 0.3 µM, log10[R848 (µM)] 2): 94.1266
TLR7 reporter signal (Cpd-7 0.3 µM, log10[R848 (µM)] 2.47712): 104.981
TLR7 reporter signal (Cpd-7 0.3 µM, log10[R848 (µM)] 3): 99.9984
TLR7 reporter signal (Cpd-7 0.3 µM, log10[R848 (µM)] -0.522879): 2.988
TLR7 reporter signal (Cpd-7 0.3 µM, log10[R848 (µM)] -1): 1.0827
TLR7 reporter signal (Cpd-7 0.3 µM, log10[R848 (µM)] -1.52288): 0.3928
TLR7 reporter signal (Cpd-7 0.3 µM, log10[R848 (µM)] -2): -0.2667
TLR7 reporter signal (Cpd-7 1 µM, log10[R848 (µM)] 0): 1.865
TLR7 reporter signal (Cpd-7 1 µM, log10[R848 (µM)] 0.477121): 1.87
TLR7 reporter signal (Cpd-7 1 µM, log10[R848 (µM)] 1): 3.318
TLR7 reporter signal (Cpd-7 1 µM, log10[R848 (µM)] 1.47712): 15.4645
TLR7 reporter signal (Cpd-7 1 µM, log10[R848 (µM)] 2): 58.664
TLR7 reporter signal (Cpd-7 1 µM, log10[R848 (µM)] 2.47712): 94.6679
TLR7 reporter signal (Cpd-7 1 µM, log10[R848 (µM)] 3): 98.5819
TLR7 reporter signal (Cpd-7 1 µM, log10[R848 (µM)] -0.522879): 2.201
TLR7 reporter signal (Cpd-7 1 µM, log10[R848 (µM)] -1): 1.343
TLR7 reporter signal (Cpd-7 1 µM, log10[R848 (µM)] -1.52288): 0.6276
TLR7 reporter signal (Cpd-7 1 µM, log10[R848 (µM)] -2): -0.3625
TLR7 reporter signal (Cpd-7 3 µM, log10[R848 (µM)] 0): 1.3957
TLR7 reporter signal (Cpd-7 3 µM, log10[R848 (µM)] 0.477121): 2.034
TLR7 reporter signal (Cpd-7 3 µM, log10[R848 (µM)] 1): 1.935
TLR7 reporter signal (Cpd-7 3 µM, log10[R848 (µM)] 1.47712): 4.379
TLR7 reporter signal (Cpd-7 3 µM, log10[R848 (µM)] 2): 17.1093
TLR7 reporter signal (Cpd-7 3 µM, log10[R848 (µM)] 2.47712): 59.4864
TLR7 reporter signal (Cpd-7 3 µM, log10[R848 (µM)] 3): 88.3569
TLR7 reporter signal (Cpd-7 3 µM, log10[R848 (µM)] -0.522879): 2.494
TLR7 reporter signal (Cpd-7 3 µM, log10[R848 (µM)] -1): 1.782
TLR7 reporter signal (Cpd-7 3 µM, log10[R848 (µM)] -1.52288): 0.9374
TLR7 reporter signal (Cpd-7 3 µM, log10[R848 (µM)] -2): -0.1469
TLR7 reporter signal (Cpd-7 10 µM, log10[R848 (µM)] 0): 1.161
TLR7 reporter signal (Cpd-7 10 µM, log10[R848 (µM)] 0.477121): 1.935
TLR7 reporter signal (Cpd-7 10 µM, log10[R848 (µM)] 1): 1.487
TLR7 reporter signal (Cpd-7 10 µM, log10[R848 (µM)] 1.47712): 2.632
TLR7 reporter signal (Cpd-7 10 µM, log10[R848 (µM)] 2): 3.275
TLR7 reporter signal (Cpd-7 10 µM, log10[R848 (µM)] 2.47712): 13.6775
TLR7 reporter signal (Cpd-7 10 µM, log10[R848 (µM)] 3): 50.3984
TLR7 reporter signal (Cpd-7 10 µM, log10[R848 (µM)] -0.522879): 2.055
TLR7 reporter signal (Cpd-7 10 µM, log10[R848 (µM)] -1): 1.301
TLR7 reporter signal (Cpd-7 10 µM, log10[R848 (µM)] -1.52288): 0.4759
TLR7 reporter signal (Cpd-7 10 µM, log10[R848 (µM)] -2): -0.6883
TLR7 reporter signal (Cpd-7 30 µM, log10[R848 (µM)] 0): 1.6017
TLR7 reporter signal (Cpd-7 30 µM, log10[R848 (µM)] 0.477121): 2.2708
TLR7 reporter signal (Cpd-7 30 µM, log10[R848 (µM)] 1): 2.316
TLR7 reporter signal (Cpd-7 30 µM, log10[R848 (µM)] 1.47712): 3.334
TLR7 reporter signal (Cpd-7 30 µM, log10[R848 (µM)] 2): 2.078
TLR7 reporter signal (Cpd-7 30 µM, log10[R848 (µM)] 2.47712): 2.285
TLR7 reporter signal (Cpd-7 30 µM, log10[R848 (µM)] 3): 8.593
TLR7 reporter signal (Cpd-7 30 µM, log10[R848 (µM)] -0.522879): 2.676
TLR7 reporter signal (Cpd-7 30 µM, log10[R848 (µM)] -1): 1.493
TLR7 reporter signal (Cpd-7 30 µM, log10[R848 (µM)] -1.52288): 0.7617
TLR7 reporter signal (Cpd-7 30 µM, log10[R848 (µM)] -2): -0.5701
TLR7 reporter signal (Cpd-7 100 µM, log10[R848 (µM)] 0): 1.319
TLR7 reporter signal (Cpd-7 100 µM, log10[R848 (µM)] 0.477121): 2.528
TLR7 reporter signal (Cpd-7 100 µM, log10[R848 (µM)] 1): 1.127
TLR7 reporter signal (Cpd-7 100 µM, log10[R848 (µM)] 1.47712): 2.558
TLR7 reporter signal (Cpd-7 100 µM, log10[R848 (µM)] 2): 1.63
TLR7 reporter signal (Cpd-7 100 µM, log10[R848 (µM)] 2.47712): 1.53
TLR7 reporter signal (Cpd-7 100 µM, log10[R848 (µM)] 3): 0.3114
TLR7 reporter signal (Cpd-7 100 µM, log10[R848 (µM)] -0.522879): 1.865
TLR7 reporter signal (Cpd-7 100 µM, log10[R848 (µM)] -1): 1.004
TLR7 reporter signal (Cpd-7 100 µM, log10[R848 (µM)] -1.52288): 0.5685
TLR7 reporter signal (Cpd-7 100 µM, log10[R848 (µM)] -2): -0.7138

Source: paper PMC7562955 (Nature Communications, 2020)
